What all share (format): cell-based, Madurella mycetomatis
In test [1] the test system is M. mycetomatis genome strain MM55. The test can be described thus: CLSI M38-A2 based in vitro susceptibility screening (XTT or resazurin), growth at fixed concentration. The conditions noted are these: for activity at 25 µM / activity at 100 µM / Percent fungal survival at 100 µM: Madurella mycetomatis; for Percent fungal survival at 100 µM: read-out: Percentage survival at 100um, 100 uM A (second replicate column).

Another test concerns M. mycetomatis MM55. Put plainly: IC50 determination, 2-fold dilution series 16 to 0.03125 μM. As to conditions: for IC50 / IC90: Madurella mycetomatis.
Test [2] deals with ten different M. mycetomatis isolates. The test can be described thus: MIC / MIC50 determination (XTT) in ten M. mycetomatis isolates. (In general: Tetrazolium assays rely on reduction of a dye to a coloured formazan, in cell work by metabolically active cells.)
The mark [3] stands for this setting: 25 uM, mean of three, M. mycetomatis MM55, read-out: Percentage survival at 25um, 25 uM mean.
The mark [4] stands for this setting: 25 uM, replicate A, M. mycetomatis MM55, read-out: Percentage survival at 25um, 25 um A.
[5] abbreviates: 25 uM, replicate B, M. mycetomatis MM55, read-out: Percentage survival at 25um, 25 uM B.
Setting [6] is: 25 uM, replicate C, M. mycetomatis MM55, read-out: Percentage survival at 25um, 25 uM C.
Setting [7] is: 100 uM, mean of three, M. mycetomatis MM55, read-out: Percentage survival at 100um, 100 uM mean.
Where [8] appears, read: 100 uM, replicate 1, M. mycetomatis MM55, read-out: Percentage survival at 100um, 100 uM A (first replicate column).
Where [9] appears, read: 100 uM, replicate 2, M. mycetomatis MM55.
Setting [10] is: 100 uM, replicate 3, M. mycetomatis MM55, read-out: Percentage survival at 100um, 100 uM A (third replicate column).
The mark [11] stands for this setting: MM55, mean of replicates, read-out: IC90 mean.
Where [12] appears, read: MM55, replicate 1, read-out: IC50 1 um.
The mark [13] stands for this setting: MM55, replicate 1, read-out: IC90 1 um.
[14] abbreviates: MM55, replicate 2, read-out: IC50 2 um.
The mark [15] stands for this setting: MM55, replicate 2, read-out: IC90 2 um.
Where [16] appears, read: MM55, replicate 3, read-out: IC50 3 um.
Where [17] appears, read: MM55, replicate 3, read-out: IC90 3 um.
Where [18] appears, read: 25 uM, mean of three replicates, read-out: Percentage survival at 25um, 25 uM mean.
Setting [19] is: 25 uM, replicate A, read-out: Percentage survival at 25um, 25 um A.
The mark [20] stands for this setting: 25 uM, replicate B, read-out: Percentage survival at 25um, 25 uM B.
[21] abbreviates: 25 uM, replicate C, read-out: Percentage survival at 25um, 25 uM C.
Setting [22] is: 100 uM, mean of three replicates, read-out: Percentage survival at 100um, 100 uM mean.
[23] abbreviates: 100 uM, replicate 1, read-out: Percentage survival at 100um, 100 uM A (first replicate column).
Where [24] appears, read: 100 uM, replicate 3, read-out: Percentage survival at 100um, 100 uM A (third replicate column).
The mark [25] stands for this setting: MM55, mean of three replicates, read-out: IC50 mean.
Where [26] appears, read: MM55, mean of three replicates, read-out: IC90 mean.

Values after ≈ are worked out from the molar mass of the structure shown. Where two headings read alike, the source gives them in different places.

Consider six compounds from PMC8815882, “Screening the pandemic response box identified benzimidazole carbamates, Olorofim and ravuconazole as promising drug candidates for the treatment of eumycetoma” (PLoS Neglected Tropical Diseases, 2022).

Consider `O=S(=O)(Nc1ccc(-n2cccc2)cc1)c1ccc(Cl)c(Cl)c1` [MMV1505642], for which the activity at 25 µM was 0.829% in test [1] (setting [3]), -1.91% in test [1] (setting [4]), 1.17% in test [1] (setting [5]) and 3.22% in test [1] (setting [6]). Also, the activity at 100 µM in test [1] (setting [7]) was 1.07%; in test [1] (setting [8]) it was -0.332%; in test [1] (setting [10]), 4.16%. The Percent fungal survival at 100 µM in test [1] (setting [9]) was -0.607%. Besides, the “Drug static or cidal” value in the test on M. mycetomatis MM55 (M. mycetomatis) is given as “Cidal”. Further, the IC50 with M. mycetomatis MM55 (MM55, Table 2, M. mycetomatis MM55, read-out: IC50) turned out to be 7.35 µM; with M. mycetomatis MM55 (setting [12]), 3.55 µM; in the test on M. mycetomatis MM55 (setting [14]), 8.05 µM; with M. mycetomatis MM55 (setting [16]) it was 10.5 µM. In addition, the IC90 with M. mycetomatis MM55 (setting [11]) is 21.8 µM; with M. mycetomatis MM55 (setting [13]) it was 20.3 µM; in the test with M. mycetomatis MM55 (setting [15]) it was 22.6 µM; in the test on M. mycetomatis MM55 (setting [17]), 22.6 µM. In addition, the MIC50 is 16 µM (≈ 5.88 µg/mL) in test [2] (Madurella mycetomatis, median MIC over ten M. mycetomatis isolates, no asterisk, read-out: MIC50) and 16 µM (≈ 5.88 µg/mL) in test [2] (Madurella mycetomatis, over the tested M. mycetomatis isolates, read-out: MIC50 mean). Moreover, the MIC is more than 16 µM in test [2] (Madurella mycetomatis, isolate CBS247.48, read-out: MIC CBS247.48); 16 µM (≈ 5.88 µg/mL) in test [2] (Madurella mycetomatis, isolate MM14, read-out: MIC MM14); 8 µM (≈ 2.94 µg/mL) in test [2] (Madurella mycetomatis, isolate MM45, read-out: MIC MM45); 16 µM (≈ 5.88 µg/mL) in test [2] (Madurella mycetomatis, isolate MM55, read-out: MIC MM55); 16 µM (≈ 5.88 µg/mL) in test [2] (Madurella mycetomatis, isolate P1, read-out: MIC P1); more than 16 µM in test [2] (Madurella mycetomatis, isolate ParijsAl1, read-out: MIC ParijsAl1). Besides, the MIC in test [2] (Madurella mycetomatis, isolate Peru72012, read-out: MIC Peru72012) is 16 µM (≈ 5.88 µg/mL); in test [2] (Madurella mycetomatis, isolate So1, read-out: MIC So1) it was more than 16 µM; in test [2] (Madurella mycetomatis, isolate i1, read-out: MIC i1), 16 µM (≈ 5.88 µg/mL); in test [2] (Madurella mycetomatis, isolate i11, read-out: MIC i11), 16 µM (≈ 5.88 µg/mL).

For the compound `CC(C)Oc1ccc(-c2nc(-c3cccc4c3CC[C@@H]4NCCO)no2)cc1C#N` [MMV1580492], the activity at 25 µM in test [1] (setting [18]) is -6.9%; in test [1] (setting [19]), -14.6%; in test [1] (setting [20]) it was -6.47%; in test [1] (setting [21]) it was 0.368%. The results for the activity at 100 µM in test [1] (setting [22]), in test [1] (setting [23]) and in test [1] (setting [24]) were 2.78%, -1.25% and 12%, respectively. Besides, the Percent fungal survival at 100 µM in test [1] (100 uM, replicate 2) was -2.44%. Moreover, in the test with M. mycetomatis MM55, the “Drug static or cidal” value was “Cidal”. Besides, the IC50 in the test with M. mycetomatis MM55 (setting [25]), with M. mycetomatis MM55 (setting [12]), in the test with M. mycetomatis MM55 (setting [14]) and with M. mycetomatis MM55 (setting [16]) was more than 25 µM each time. Besides, the IC90 with M. mycetomatis MM55 (setting [26]), in the test on M. mycetomatis MM55 (setting [13]), in the test on M. mycetomatis MM55 (setting [15]) and in the test on M. mycetomatis MM55 (setting [17]) was more than 25 µM throughout.

For the compound `O=S(=O)(Nc1cccc2cccnc12)c1ccccc1` [MMV1578890], the activity at 25 µM came out at 2.42% in test [1] (setting [3]), 2.33% in test [1] (setting [4]), 0.789% in test [1] (setting [5]) and 4.13% in test [1] (setting [6]). The activity at 100 µM in test [1] (setting [7]) stood at 29.9%; in test [1] (setting [8]) it was 1.58%; in test [1] (setting [10]), 6.47%. Also, the Percent fungal survival at 100 µM in test [1] (setting [9]) came to 81.7%. In the test with M. mycetomatis MM55 (M. mycetomatis), the “Drug static or cidal” value was “Static”. Further, the IC50 in the test on M. mycetomatis MM55 (MM55, mean of replicates, read-out: IC50 mean) came to 10.5 µM; with M. mycetomatis MM55 (setting [12]) it was 6.8 µM; with M. mycetomatis MM55 (setting [14]) it was 12.5 µM; with M. mycetomatis MM55 (setting [16]) it was 12.1 µM. For the same compound, the IC90 is 22.7 µM in the test with M. mycetomatis MM55 (setting [11]), 23.7 µM with M. mycetomatis MM55 (setting [13]), 22.2 µM in the test with M. mycetomatis MM55 (setting [15]) and 22.2 µM in the test with M. mycetomatis MM55 (setting [17]).

As to `N#Cc1c(F)c(Cl)c(NCc2ccccc2)c(C#N)c1F` [MMV1582496], the activity at 25 µM in test [1] (setting [18]) is 4.98%; in test [1] (setting [19]) it was 2%; in test [1] (setting [20]), -0.68%; in test [1] (setting [21]) it was 13.6%. In addition, the figures for the activity at 100 µM in test [1] (setting [22]), in test [1] (setting [23]) and in test [1] (setting [24]) were 2.09%, -0.676% and 5.72%, respectively. For the same compound, the Percent fungal survival at 100 µM in test [1] (100 uM, replicate 2) was 1.24%. Moreover, the “Drug static or cidal” value in the test on M. mycetomatis MM55 is “Static”. Also, the IC50 in the test on M. mycetomatis MM55 (setting [25]) amounted to 15.2 µM; in the test on M. mycetomatis MM55 (setting [12]), 13.2 µM; in the test on M. mycetomatis MM55 (setting [14]), 15.8 µM; in the test with M. mycetomatis MM55 (setting [16]) it was 16.5 µM. In addition, the IC90 worked out at 23.6 µM in the test with M. mycetomatis MM55 (setting [26]), 23.1 µM in the test on M. mycetomatis MM55 (setting [13]), 23.6 µM in the test on M. mycetomatis MM55 (setting [15]) and 24.2 µM in the test with M. mycetomatis MM55 (setting [17]).

For “Miconazole [MMV689401, reference compound]”, in test [1], the “Percentage survival at 25um, 25 uM B” value is 77.7759%; the “Percentage survival at 25um, 25 uM C” value is listed as 51.747%; the “Percentage survival at 25um, 25 uM mean” value amounted to 64.2303%. Moreover, in test [1] (25 uM, replicate A, M. mycetomatis MM55), the “Percentage survival at 25um, 25 um A” value was 63.1681%. In addition, the “Percentage survival at 100um, 100 uM mean” value in test [1] (100 uM, mean of three, M. mycetomatis MM55) is recorded as 51.5997%. Further, the “Percentage survival at 100um, 100 uM A (first replicate column)” value in test [1] (100 uM, replicate 1, M. mycetomatis MM55) is on record as 60.4441%. For the same compound, the “Percentage survival at 100um, 100 uM A (second replicate column)” value in test [1] (setting [9]) came to 58.6196%. Besides, the “Percentage survival at 100um, 100 uM A (third replicate column)” value in test [1] (100 uM, replicate 3, M. mycetomatis MM55) is listed as 35.7354%. Moreover, the MIC50 in test [2] (median MIC over ten M. mycetomatis isolates, no asterisk, read-out: MIC50) worked out at 0.13 µM. Moreover, in test [2] (range of MIC over ten M. mycetomatis isolates, no asterisk), the “MIC range” value was less than 0.03 to 0.25 µM.

Consider `N=c1n(CCN2CCCCC2)c2ccccc2n1CC(O)COc1ccc(Cl)cc1Cl` (stereo not shown) [MMV394033], for which the activity at 25 µM in test [1] (setting [18]) is -4.41%; in test [1] (setting [19]), -10.3%; in test [1] (setting [20]) it was -2.83%; in test [1] (setting [21]) it was -0.144%. The activity at 100 µM in test [1] (setting [22]) was -2.82%; in test [1] (setting [23]) it was -5.36%; in test [1] (setting [24]), -0.0169%. Moreover, in test [1] (100 uM, replicate 2), the Percent fungal survival at 100 µM is -3.08%. The “Drug static or cidal” value in the test on M. mycetomatis MM55 is on record as “Cidal”. The IC50 in the test with M. mycetomatis MM55 (setting [25]) worked out at 17.1 µM; with M. mycetomatis MM55 (setting [12]), 18.7 µM; in the test on M. mycetomatis MM55 (setting [14]), 16.3 µM; in the test on M. mycetomatis MM55 (setting [16]) it was 16.4 µM. The IC90 in the test on M. mycetomatis MM55 (setting [13]) is more than 25 µM; in the test with M. mycetomatis MM55 (setting [15]), 23.5 µM; in the test with M. mycetomatis MM55 (setting [17]), 23.7 µM.

One may read the IC50 as the concentration at which inhibition is half-maximal. For orientation: IC90 means the concentration at which the effect reaches the 90% level. What is called MIC50 is an inhibitory concentration at the 50% level, which refers to growth in some studies and to a panel of isolates in others. Broadly, the MIC is the smallest concentration in the dilution series that meets the test's criterion for growth inhibition.
